Patent publication US11254705B2, “Cyclic peptide analogs and conjugates thereof” (Sirenas LLC, priority 2016, dated 2022)

Assays:
[1] = tested on: BT-474 human mammary gland ductal carcinoma cells; assay: Inhibition of BT-474 cell growth (Cell Titer-Glo, 72 h); type: cell-based; settings: BT-474 cells, 72 hours of culture, Cell Titer-Glo luminescence
Method: (§1) BT-474 human mammary gland ductal carcinoma cells were seeded in a clear polystyrene 96-well microculture plate (Corning® Costar® 96-well flat bottom plate, Cat. #3997) in a total volume of 90 μL/well. After 24 hours of incubation in a humidified incubator at 37° C. with 5% CO2 and 95% air, 10 μL of 10×, serially diluted test agents in growth medium were added to each well (10 pt dose response curve, highest concentration 10 μM of test agent). After 72 hours of culture in a humidified incubator at 37° C., in an atmosphere of 5% CO2 and 95% air, the plated cells and Cell Titer-Glo® (Protnega G7571) reagents were brought to room temperature to equilibrate for 30 minutes. 100 μL of Cell Titer-Glo® reagent was added to each well. The plate was shaken for two minutes and then left to equilibrate for ten minutes. The media/Cell Titer-Glo® reagent was transferred to a white polystyrene 96-well microculture plate (Corning® Costar® 96-well flat bottom plate, Cat. #3917) before reading luminescence on a Tecan GENios microplate reader.
(§2) Percent inhibition of cell growth was calculated relative to untreated control wells. The IC50 value for the test agents was determined using Prism 6.05 by curve-fitting of the data using the following four parameter-logistic equation:
[formula] where Top is the maximal % of control absorbance, Bottom is the minimal % of control absorbance at the highest agent concentration, Y is the % of control absorbance, X is the agent concentration, IC50 is the concentration of agent that inhibits cell growth by 50% compared to the control cells, and n is the slope of the curve. […]

HCC1954 cells = assay: Inhibition of HCC1954 cell growth (method analogous to BT-474); type: cell-based; settings: Homo sapiens
Method: as §1, §2
[formula] where Top is the maximal % of control absorbance, Bottom is the minimal % of control absorbance at the highest agent concentration, Y is the % of control absorbance, X is the agent concentration, IC50 is the concentration of agent that inhibits cell growth by 50% compared to the control cells, and n is the slope of the curve.
Inhibitory response of test compounds against HCC1954 cells was determined using a method analogous to that used for BT-474 cells.

SMILES | IC50 [1] [nM] | IC50 (HCC1954 cells) [nM]
C/C=C(\C)[C@H]1OC(=O)[C@@H](C)NC(=O)[C@H](C(C)CC)NC(=O)CN(C)C(=O)[C@@H](Cc2ccccc2)N(C)C(=O)[C@H](C)NC(=O)[C@@H](CC(C)C)OC(=O)/C(C)=C/C[C@H](OC(=O)NCCCCCCCO)[C@@H]1C (stereo partly drawn) [Compound 5, (2R,5S,8R,14S,17R,20S,21S,22S,E)-8-benzyl-20-((E)-but-2-en-2-yl)-14-((R)-sec-butyl)-2-isobutyl-5,7,10,17,21,25-hexamethyl-3,6,9,12,15,18,26-heptaoxo-1,19-dioxa-4,7,10,13,16-pentaazacyclohexacos-24-en-22-yl(7-hydroxyheptyl)carbamate] | 0.329 | 1.11
C/C=C(\C)[C@H]1OC(=O)[C@@H](C)NC(=O)[C@H]([C@H](C)CC)NC(=O)CN(C)C(=O)[C@@H](Cc2ccccc2)N(C)C(=O)[C@H](C)NC(=O)[C@@H](CC(C)C)OC(=O)/C(C)=C/C[C@H](OC(=O)NCCCCCO)[C@@H]1C [Compound 3, (2R,5S,8R,14S,17R,20S,21S,22S,E)-8-benzyl-20-((E)-but-2-en-2-yl)-14-((R)-sec-butyl)-2-isobutyl-5,7,10,17,21,25-hexamethyl-3,6,9,12,15,18,26-heptaoxo-1,19-dioxa-4,7,10,13,16-pentaazacyclohexacos-24-en-22-yl (5-hydroxypentyl)carbamate] | 0.0843 | 1.41
C/C=C(\C)[C@H]1OC(=O)[C@@H](C)NC(=O)[C@H]([C@H](C)CC)NC(=O)CN(C)C(=O)[C@@H](Cc2ccccc2)N(C)C(=O)[C@H](C)NC(=O)[C@@H](CC(C)C)OC(=O)/C(C)=C/C[C@H](OC(=O)NCCCO)[C@@H]1C [Compound 1, (2R,5S,8R,14S,17R,20S,21S,22S,E)-8-benzyl-20-((E)-but-2-en-2-yl)-14-((R)-sec-butyl)-2-isobutyl-5,7,10,17,21,25-hexamethyl-3,6,9,12,15,18,26-heptaoxo-1,19-dioxa-4,7,10,13,16-pentaazacyclohexacos-24-en-22-yl (3-hydroxypropyl)carbamate] | 0.0811 | 0.457
C/C=C(\C)[C@H]1OC(=O)[C@@H](C)NC(=O)[C@H](C(C)CC)NC(=O)CN(C)C(=O)[C@@H](Cc2ccccc2)N(C)C(=O)[C@H](C)NC(=O)[C@@H](CC(C)C)OC(=O)/C(C)=C/C[C@H](OC(=O)NCCCCCCO)[C@@H]1C (stereo partly drawn) [Compound 4, (2R,5S,8R,14S,17R,20S,21S,22S,E)-8-benzyl-20-((E)-but-2-en-2-yl)-14-((R)-sec-butyl)-2-isobutyl-5,7,10,17,21,25-hexamethyl-3,6,9,12,15,18,26-heptaoxo-1,19-dioxa-4,7,10,13,16-pentaazacyclohexacos-24-en-22-yl(6-hydroxyhexyl)carbamate] | 0.523 | 3.21
